From patent publication US11129840B2, “Methods for identifying novel dosing regimens” (Zavante Therapeutics, Inc., priority 2017, dated 2021)
Converted amounts (≈) assume the structure as drawn. Like-named read-outs stand apart in the source and are kept apart here. Marks after values point to notes of the source that are not given here.

Tests used:
[1] = test system: ESBL-containing E. coli; test: Reference agar dilution MIC, ZEUS baseline isolates; type: cell-based; settings: Escherichia coli; 49 isolates
Description: (§1) FOS was tested against 465 GN baseline clinical isolates collected in the cUTI clinical trial. Isolates were susceptibility (S) tested against comparator agents by reference broth microdilution and FOS by reference agar dilution (25 μg/mL glucose-6-phosphate supplementation). Existing FDA FOS breakpoints of ≤64 mg/L for the oral formulation were used for comparative assessments. Screen-positive ESBL Enterobacteriaceae isolates were characterized by whole genome sequencing and analysis for the presence of known β-lactamase genes.

[2] = test system: K. pneumoniae isolates with carbapenemase genes NDM-1 and OXA-48; test: as above; type: cell-based; settings: Klebsiella pneumoniae
Description: as §1

[3] = test system: E. coli; test: as above; type: cell-based; settings: 329 E. coli
Description: as §1

[4] = test system: Pseudomonas aeruginosa; test: as above; type: cell-based
Description: as §1

[5] = test system: Klebsiella pneumoniae; test: as above; type: cell-based
Description: as §1

[6] = test system: ESBL-containing P. mirabilis; test: as above; type: cell-based; settings: Proteus mirabilis; 3 isolates
Description: as §1

[7] = test system: Proteus mirabilis; test: as above; type: cell-based; settings: 20 isolates
Description: as §1

[8] = test system: Enterobacter cloacae complex; test: as above; type: cell-based
Description: as §1

[9] = test system: Enterobacteriaceae; test: as above; type: cell-based
Description: as §1

[10] = test system: ESBL-containing K. pneumoniae; test: as above; type: cell-based; settings: Klebsiella pneumoniae
Description: as §1

[11] = test system: S. pyogenes; test: Reference agar dilution MIC, SENTRY US isolates; type: cell-based; settings: Streptococcus pyogenes
Description: FOS was tested against over 1,400 GN and 800 GP clinical isolates collected in US medical centers as part of the SENTRY Antimicrobial Surveillance Program (96% of isolates from 2015) and a selection of 29 GN and 20 GP anaerobes. Isolates were susceptibility (S) tested against FOS and comparators by reference agar dilution (25 μg/mL glucose-6-phosphate supplementation) using existing FDA breakpoints of the oral formulation for comparative assessments.

[12] = test system: MR coagulase negative staphylococci (MR-CoNS); test: Reference agar dilution MIC, resistant SENTRY isolates; type: cell-based
Description: (§2) Utilizing existing interpretative criteria for the marketed oral agent (dosed at 3 g) for analysis purposes, FOS susceptibility (S) was determined for recent resistant GN and GP clinical isolates including vancomycin-resistant Enterococcus faecium (VREM) and E. faecalis (VREF); methicillin-resistant Staphylococcus aureus (MRSA) and MR coagulase negative staphylococci (MR-CoNS), Escherichia coli (EC) and Klebsiella pneumoniae (KPN) containing extended spectrum beta-lactamases (ESBL) or were carbapenem resistant (CR); and), Pseudomonas aeruginosa (PSA) non-susceptible to ceftazidime (CAZ-NS) or to meropenem (MER-NS). […] Isolates were collected from hospitalized patients in the US as a part of the SENTRY surveillance program, 2013-2015.

[13] = test system: methicillin-resistant Staphylococcus aureus (MRSA); test: as above; type: cell-based
Description: as §2

[14] = test system: EC with an ESBL phenotype; test: as above; type: cell-based; settings: Escherichia coli
Description: as §2

[15] = test system: vancomycin-resistant Enterococcus faecium (VREM); test: as above; type: cell-based
Description: as §2

[16] = test system: EC; test: Thigh infection, static dose and PD targets; type: in vivo, mice
Description: (§3) 5 EC (4 ESBL), 3 KPN (2 CR), and 2 PSA were used. MICs were determined by agar dilution. […] PK/PD index determination was performed using a dose fractionation (DF) study design. […] The dose-response data was analyzed using the Emax Hill equation.

[17] = test system: PSA; test: Thigh infection, static dose and PD targets; type: in vivo, mice
Description: as §3

[18] = test system: KPN; test: Thigh infection, static dose and PD targets; type: in vivo, mice
Description: as §3

[19] = Phase I safety and tolerability in healthy adult subjects; type: in vivo, human
Description: Materials/methods: Phase I, open-label study evaluating IV (ZTI-01) and PO (Monurol®) FOS in healthy adult subjects. […] Blood and urine samples were collected serially before and through 48 hours post-dose and analyzed via LC/MS-MS. Noncompartmental analyses were performed via WinNonlin. Safety was monitored throughout the course of the study.

[20] = test system: KPN with ESBL phenotype; test: Reference agar dilution MIC, resistant SENTRY isolates; type: cell-based, Klebsiella pneumoniae
Description: (§4) Utilizing existing interpretative criteria for the marketed oral agent (dosed at 3 g) for analysis purposes, FOS susceptibility (S) was determined for recent resistant GN and GP clinical isolates including vancomycin-resistant Enterococcus faecium (VREM) and E. faecalis (VREF); methicillin-resistant Staphylococcus aureus (MRSA) and MR coagulase negative staphylococci (MR-CoNS), Escherichia coli (EC) and Klebsiella pneumoniae (KPN) containing extended spectrum beta-lactamases (ESBL) or were carbapenem resistant (CR); and), Pseudomonas aeruginosa (PSA) non-susceptible to ceftazidime (CAZ-NS) or to meropenem (MER-NS).

[21] = test system: CR-KPN; test: as above; type: cell-based, Klebsiella pneumoniae
Description: as §4

[22] = Klebsiella pneumoniae, 17 CR-KPN

Compound `C[C@@H]1O[C@@H]1P(=O)(O)O` [FOS, fosfomycin] has an MIC50 [1] of 1 µg/mL (≈ 7.24 µM), an MIC90 [1] of 2 µg/mL (≈ 14.5 µM) and an MIC ([2]; NDM-1 isolate) of 8 µg/mL (≈ 57.9 µM). For the same compound, the MIC ([2]; OXA-48 isolate) was 64 µg/mL (≈ 464 µM), the “% S to FOS” value [3] was 100.0% and the MIC90 [4] was 256 µg/mL (≈ 1850 µM). The MIC50 ([4]; 21 isolates) was 64 µg/mL (≈ 464 µM), the “% of isolates <64 mg/L” value ([5]; 62 isolates) was 87.1% and the MIC90 ([5]; Klebsiella pneumoniae) was 128 µg/mL (≈ 927 µM). It also gave an MIC50 ([5]; Klebsiella pneumoniae, 62 isolates) of 16 µg/mL (≈ 116 µM), an MIC50 [6] of 2 µg/mL (≈ 14.5 µM) and an MIC50 [7] of 2 µg/mL (≈ 14.5 µM). It also gave an MIC90 [7] of 32 µg/mL (≈ 232 µM), an MIC90 [8] of 128 µg/mL (≈ 927 µM) and an MIC50 ([8]; 14 isolates) of 16 µg/mL (≈ 116 µM). For the same compound, the “% of isolates ≤64 mg/L” value [9] was 96.4%, the MIC50 [9] was 1 µg/mL (≈ 7.24 µM) and the MIC90 [9] was 16 µg/mL (≈ 116 µM). It also gave an MIC90 [10] of 128 µg/mL (≈ 927 µM), an MIC50 ([10]; 28 isolates) of 16 µg/mL (≈ 116 µM) and an MIC50 [11] of 32 µg/mL (≈ 232 µM). The MIC90 [11] was 64 µg/mL (≈ 464 µM), the MIC ([12]; Staphylococcus capitis) was 128 µg/mL (≈ 927 µM) and the MIC ([12]; Staphylococcus hominis) was > 256 µg/mL. For the same compound, the “No. of isolates with FOS MIC≤64 μg/mL” value ([12]; of 153 MR-CoNS) was 72, the MIC50 ([13]; 101 MRSA) was 4 µg/mL (≈ 29 µM) and the MIC90 ([13]; 101 MRSA) was 8 µg/mL (≈ 57.9 µM). For the same compound, the MIC ([13]; all 101 MRSA) was ≤ 64 µg/mL, the MIC [14] was > 256 µg/mL and the MIC50 ([14]; 49 EC) was 0.5 µg/mL (≈ 3.62 µM). The MIC90 ([14]; 49 EC) was 4 µg/mL (≈ 29 µM), the MIC ([14]; remaining isolates, read-out: MIC values) was ≤ 32 µg/mL and the MIC90 ([15]; Enterococcus faecium) was 128 µg/mL (≈ 927 µM). For the same compound, the MIC50 ([15]; Enterococcus faecium, 81 VREM) was 64 µg/mL (≈ 464 µM), the “No. of isolates with an MIC 64 μg/mL” value ([15]; of 81 VREM) was 63 and the “Static Dose” value ([16]; mean) was 847 mg/kg/24 h. For the same compound, the “Stasis AUC/MIC” value ([16]; median target) was 19.3*, the “Stasis T > MIC” value ([16]; median target) was 37.7* % and the “Static Dose” value ([17]; mean) was 1920 mg/kg/24 h. The “Stasis AUC/MIC” value ([17]; mouse, in vivo) was 15, the “Stasis T > MIC” value ([17]; mouse, in vivo) was 29% and the “Static Dose” value ([18]; mean) was 1667 mg/kg/24 h. The “Stasis AUC/MIC” value ([18]; median target) was 11.1*, the “Stasis T > MIC” value ([18]; median target) was 26.5* % and the “share of TEAE that occurred after the 8 g IV dose” value ([19]; 8 g IV) was 67.9%. For the same compound, the “hypocalcemia (most common TEAE)” value ([19]; after 1 g IV) was 17.9%, the “bradycardia (most common TEAE)” value ([19]; after 8 g IV) was 28.6% and the “% of subjects reporting a treatment-emergent adverse event (TEAE)” value ([19]; all regimens) was 80%. For the same compound, the “severity of TEAEs” value ([19]; all regimens, resolved without sequelae) was “mild-moderate”, the “headache (most common FOS-related TEAE)” value ([19]; human, in vivo) was 10.7% and the MIC ([20]; Klebsiella pneumoniae) was > 256 µg/mL. The MIC50 ([20]; Klebsiella pneumoniae, 50 KPN) was 4 µg/mL (≈ 29 µM), the MIC90 ([20]; Klebsiella pneumoniae, 50 KPN) was 16 µg/mL (≈ 116 µM) and the “No. of isolates with FOS MIC≤64 μg/mL” value ([20]; of 50 KPN) was 49. The MIC50 [21, 22] was 8 µg/mL (≈ 57.9 µM), the MIC90 [21, 22] was 64 µg/mL (≈ 464 µM) and the “No. of isolates with FOS MIC≤64 μg/mL” value ([21]; of 17 CR-KPN) was 16. For the same compound, the MIC ([21]; one isolate) was > 256 µg/mL.
